In patent US20230049231A1 (priority 2019, published 2023):

Columns and labels:
Kv1.3 potassium channel = molecular target: T1, Kv1.3 potassium channel (Homo sapiens, UniProt P22001); test: Kv1.3 potassium channel blocker activity, automated whole-cell patch clamp (Patchliner); type: cell-based
T1 construct: expressed in transfected cells
Procedure, shortened: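 IC50 came from Hill-equation fits of peak and AUC currents from the final pulse at each concentration, normalized to compound-free control. Compounds applied consecutively at 30 nM to 100 μM (up to 0.3% DMSO) to Kv1.3-expressing CHO-K1 cells, P/4 leak subtraction. Pulses were +40 mV, 100 ms, from −90 mV holding, at 0.1 Hz on Patchliner.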

hERG channel = molecular target: T2, hERG channel (Homo sapiens, UniProt Q12809); test: hERG electrophysiology, automated whole-cell patch clamp (Patchliner); type: cell-based
T2 construct: expressed in transfected cells
T2 sequence (Q12809 whole entry): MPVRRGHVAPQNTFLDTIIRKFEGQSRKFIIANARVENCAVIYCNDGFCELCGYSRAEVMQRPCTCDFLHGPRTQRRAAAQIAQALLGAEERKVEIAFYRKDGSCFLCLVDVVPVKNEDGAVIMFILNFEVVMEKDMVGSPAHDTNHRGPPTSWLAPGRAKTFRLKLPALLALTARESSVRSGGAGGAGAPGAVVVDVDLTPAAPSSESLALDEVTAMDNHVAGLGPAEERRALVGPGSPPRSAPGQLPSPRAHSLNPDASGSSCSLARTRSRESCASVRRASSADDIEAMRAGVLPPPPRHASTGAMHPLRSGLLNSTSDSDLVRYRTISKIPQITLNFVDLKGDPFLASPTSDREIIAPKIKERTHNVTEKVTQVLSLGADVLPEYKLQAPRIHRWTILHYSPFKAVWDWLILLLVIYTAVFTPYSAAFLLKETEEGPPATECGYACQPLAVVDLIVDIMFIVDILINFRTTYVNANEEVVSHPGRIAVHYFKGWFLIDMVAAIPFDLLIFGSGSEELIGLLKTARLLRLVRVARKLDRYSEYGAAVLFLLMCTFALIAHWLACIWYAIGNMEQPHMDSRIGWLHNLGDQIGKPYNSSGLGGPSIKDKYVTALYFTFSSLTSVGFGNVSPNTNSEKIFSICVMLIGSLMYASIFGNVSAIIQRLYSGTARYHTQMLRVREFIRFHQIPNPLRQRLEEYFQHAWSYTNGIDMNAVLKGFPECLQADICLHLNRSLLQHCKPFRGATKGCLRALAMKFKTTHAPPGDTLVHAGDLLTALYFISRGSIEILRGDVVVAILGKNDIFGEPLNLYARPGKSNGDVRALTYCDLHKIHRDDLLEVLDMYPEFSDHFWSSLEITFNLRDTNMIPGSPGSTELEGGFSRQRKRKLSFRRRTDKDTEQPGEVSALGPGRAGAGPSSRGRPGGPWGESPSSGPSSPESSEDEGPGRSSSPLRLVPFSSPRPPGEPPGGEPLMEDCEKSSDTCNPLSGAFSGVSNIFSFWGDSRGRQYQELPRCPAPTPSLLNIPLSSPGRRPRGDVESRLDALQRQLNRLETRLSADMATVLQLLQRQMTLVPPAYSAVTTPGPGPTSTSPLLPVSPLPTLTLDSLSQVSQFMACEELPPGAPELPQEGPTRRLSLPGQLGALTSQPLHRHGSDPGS
Procedure, shortened: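 Currents were recorded at 0.3 Hz from −80 mV, stepping to +20 mV then −50 mV (300 ms each), in stably transfected CHO-K1 cells. Concentrations (30 nM–100 μM, up to 0.3% DMSO) were added sequentially without washout. IC50 came from Hill fits of control-normalized AUC/peak of each train's final pulse.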

[1] = Kv1.3 potassium channel, whole-cell patch clamp
[2] = hERG channel, whole-cell patch clamp
[3] = CHO-K1 cells stably expressing Kv1.3, 100 ms pulses from -90 mV to +40 mV, 0.1 Hz
[4] = CHO-K1 cells stably expressing hERG, +20 mV 300 ms, -50 mV 300 ms tail current, 0.3 Hz

T1 sequence (P22001 whole entry): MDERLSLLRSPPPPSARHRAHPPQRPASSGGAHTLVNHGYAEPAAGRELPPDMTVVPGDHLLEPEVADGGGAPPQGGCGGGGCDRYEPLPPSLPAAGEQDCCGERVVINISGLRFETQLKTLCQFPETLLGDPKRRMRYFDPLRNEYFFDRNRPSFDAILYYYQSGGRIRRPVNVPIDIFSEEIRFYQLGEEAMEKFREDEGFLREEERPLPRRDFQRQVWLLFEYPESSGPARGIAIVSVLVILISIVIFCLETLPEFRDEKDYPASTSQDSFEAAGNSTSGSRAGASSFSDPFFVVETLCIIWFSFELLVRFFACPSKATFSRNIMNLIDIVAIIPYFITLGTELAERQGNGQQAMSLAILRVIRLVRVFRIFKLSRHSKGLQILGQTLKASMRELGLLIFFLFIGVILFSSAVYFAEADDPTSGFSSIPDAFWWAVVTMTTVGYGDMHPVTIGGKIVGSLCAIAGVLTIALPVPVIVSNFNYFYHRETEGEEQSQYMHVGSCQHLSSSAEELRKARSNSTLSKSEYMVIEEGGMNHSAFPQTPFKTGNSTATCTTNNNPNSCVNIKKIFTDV

| SMILES | IC50 (Kv1.3 potassium channel; [1]) | IC50 (Kv1.3 potassium channel; [3]) | IC50 (hERG channel; [2]) | IC50 (hERG channel; [4]) |
| --- | --- | --- | --- | --- |
| O=C1O[C@@H](CN2CC(O)C2)[C@@H]2C[C@H](c3c(O)ccc(Cl)c3Cl)CN12 (single isomer, unassigned) [Compound 282] | < 1000 nM | – | < 30 µM | – |
| O=C1O[C@H](CN2CC(O)C2)[C@@H]2C[C@H](c3c(O)ccc(Cl)c3Cl)CN12 (single isomer, unassigned) [Compound 283] | < 1000 nM | – | > 30 µM | – |
| O=C1O[C@@H](CN2CCOCC2)[C@@H]2C[C@H](c3c(O)ccc(Cl)c3Cl)CN12 (single isomer, unassigned) [Compound 284] | < 1000 nM | – | > 30 µM | – |
| CNC(=O)[C@@H]1OC(=O)N2C[C@@H](c3c(O)ccc(Cl)c3Cl)C[C@@H]12 (single isomer, unassigned) [Compound 288] | < 1000 nM | – | > 30 µM | – |
| O=C1CN(C(=O)[C@H]2C[C@H](O)C2)C[C@@H]2C[C@H](c3c(O)ccc(Cl)c3Cl)CN12 (single isomer, unassigned; isomer 1) [Compound 27] | – | < 1000 nM | – | > 30 µM |
| O=C1C[C@@H](O)C[C@@H]2C[C@H](c3c(O)ccc(Cl)c3Cl)CN12 (single isomer, unassigned; isomer 1) [Compound 61] | – | < 1000 nM | – | > 30 µM |
| C[C@@H]1CN(C(=O)CO)C[C@@H]2C[C@H](c3c(O)ccc(Cl)c3Cl)CN2C1=O (single isomer, unassigned; isomer 1) [Compound 91] | < 1000 nM | – | > 30 µM | – |
| COC[C@@H](O)CN1CC(=O)N2C[C@@H](c3c(O)ccc(Cl)c3Cl)C[C@H]2C1 (single isomer, unassigned; isomer 1) [Compound 152] | < 1000 nM | – | < 30 µM | – |
| O=C1CN([C@H]2C[C@](O)(CO)C2)C[C@@H]2C[C@H](c3c(O)ccc(Cl)c3Cl)CN12 (single isomer, unassigned; isomer 1) [Compound 163] | < 1000 nM | – | > 30 µM | – |
| O=C1CN(C(=O)[C@H]2C[C@@H](O)C2)C[C@@H]2C[C@H](c3c(O)ccc(Cl)c3Cl)CN12 (single isomer, unassigned; isomer 2) [Compound 22] | – | < 1000 nM | – | > 30 µM |
| C[C@H]1[C@@H]2C[C@H](c3c(O)ccc(Cl)c3Cl)CN2C(=O)CN1C(=O)CO (single isomer, unassigned; isomer 2) [Compound 88] | < 1000 nM | – | > 30 µM | – |
| C[C@@H](CO)N1CC(=O)N2C[C@@H](c3c(O)ccc(Cl)c3Cl)C[C@H]2C1 (single isomer, unassigned; isomer 2) [Compound 117] | < 1000 nM | – | > 30 µM | – |
| C[C@H](C1CNC1)N1CC(=O)N2C[C@@H](c3c(O)ccc(Cl)c3Cl)C[C@H]2C1 (single isomer, unassigned; isomer 2) [Compound 138] | < 1000 nM | – | > 30 µM | – |
| O=C1C[C@H](N2CC(=O)N3C[C@@H](c4c(O)ccc(Cl)c4Cl)C[C@H]3C2)CN1 (single isomer, unassigned; isomer 2) [Compound 161] | < 1000 nM | – | > 30 µM | – |
| O=C1CC(N2CCNCC2)C[C@@H]2C[C@H](c3c(O)ccc(Cl)c3Cl)CN12 (stereo in doubt) [Compound 208, (2R,7R,8aS)-2-(2,3-dichloro-6-hydroxyphenyl)-7-(piperazin-1-yl)hexahydroindolizin-5(1H)-one] | < 1000 nM | – | < 10 µM | – |
| COC[C@@H](O)C(=O)N1CC(=O)N2CC[C@@H](c3c(O)ccc(Cl)c3Cl)C[C@H]2C1 [Compound 4, (8R,9aS)-8-(2,3-dichloro-6-hydroxyphenyl)-2-[(2R)-2-hydroxy-3-methoxypropanoyl]-hexahydro-1H-pyrido[1,2-a]pyrazin-4-one] | – | < 1000 nM | – | > 30 µM |
| CCC(=O)N1CC(=O)N2C[C@@H](c3c(O)ccc(Cl)c3Cl)C[C@H]2C1 [Compound 8, (7R,8aS)-7-(2,3-dichloro-6-hydroxyphenyl)-2-pro-pionylhexahydropyrrolo [1,2-a]pyrazin-4(1H)-one] | – | < 1000 nM | – | < 30 µM |
| CC[C@H](O)C(=O)N1CC(=O)N2CC[C@@H](c3c(O)ccc(Cl)c3Cl)C[C@H]2C1 [Compound 9, (8R,9aS)-8-(2,3-dichloro-6-hydroxyphenyl)-2-[(2S)-2-hydroxybutanoyl]-hexahydro-1H-pyrido[1,2-a]pyrazin-4-one] | – | < 1000 nM | – | > 30 µM |
| O=C(CCO)N1CC(=O)N2CC[C@@H](c3c(O)ccc(Cl)c3Cl)C[C@H]2C1 [Compound 11, (8R,9aS)-8-(2,3-dichloro-6-hydroxyphenyl)-2-(3-hydroxypropanoyl)octahydro-4H-pyrido[1,2-a]pyrazin-4-one] | – | < 1000 nM | – | > 30 µM |
| CO[C@H](CO)C(=O)N1CC(=O)N2C[C@@H](c3c(O)ccc(Cl)c3Cl)C[C@H]2C1 [Compound 14, (7R,8aS)-7-(2,3-dichloro-6-hydroxyphenyl)-2-[(2R)-3-hydroxy-2-methoxypropanoyl]-hexahydropyrrolo[1,2-a]pyrazin-4-one] | – | < 1000 nM | – | > 30 µM |

More lines, main results first:

| IC50 (Kv1.3 potassium channel; [1]) | IC50 (Kv1.3 potassium channel; [3]) | SMILES | IC50 (hERG channel; [2]) | IC50 (hERG channel; [4]) |
| --- | --- | --- | --- | --- |
| < 1000 nM | – | O=C1O[C@H](CN2CCOCC2)[C@@H]2C[C@H](c3c(O)ccc(Cl)c3Cl)CN12 (single isomer, unassigned) [Compound 285] | > 30 µM | – |
| < 1000 nM | – | NC(=O)[C@@H]1OC(=O)N2C[C@@H](c3c(O)ccc(Cl)c3Cl)C[C@@H]12 (single isomer, unassigned) [Compound 286] | > 30 µM | – |
| < 1000 nM | – | NC(=O)[C@H]1OC(=O)N2C[C@@H](c3c(O)ccc(Cl)c3Cl)C[C@@H]12 (single isomer, unassigned) [Compound 287] | > 30 µM | – |
| < 1000 nM | – | O=C1CN(C[C@@H]2CCN2)C[C@@H]2C[C@H](c3c(O)ccc(Cl)c3Cl)CN12 (single isomer, unassigned; isomer 1) [Compound 139] | > 30 µM | – |
| < 1000 nM | – | C[C@@H](O)CN1CC(=O)N2C[C@@H](c3c(O)ccc(Cl)c3Cl)C[C@H]2C1 (single isomer, unassigned; isomer 1) [Compound 150] | > 30 µM | – |
| < 1000 nM | – | O=C1C[C@@H](N2CC(=O)N3C[C@@H](c4c(O)ccc(Cl)c4Cl)C[C@H]3C2)CN1 (single isomer, unassigned; isomer 1) [Compound 160] | > 30 µM | – |
| – | < 1000 nM | O=C1C[C@H](O)C[C@@H]2C[C@H](c3c(O)ccc(Cl)c3Cl)CN12 (single isomer, unassigned; isomer 2) [Compound 62] | – | > 30 µM |
| < 1000 nM | – | C[C@H]1[C@@H]2C[C@H](c3c(O)ccc(Cl)c3Cl)CCN2C(=O)CN1C(=O)CO (single isomer, unassigned; isomer 2) [Compound 84] | > 30 µM | – |
| < 1000 nM | – | C[C@H]1CN(C(=O)CO)C[C@@H]2C[C@H](c3c(O)ccc(Cl)c3Cl)CN2C1=O (single isomer, unassigned; isomer 2) [Compound 92] | > 30 µM | – |
| < 1000 nM | – | O=C1CN(C[C@H](O)CO)C[C@@H]2C[C@H](c3c(O)ccc(Cl)c3Cl)CN12 (single isomer, unassigned; isomer 2) [Compound 115] | > 30 µM | – |
| < 1000 nM | – | COC[C@@H](CO)N1CC(=O)N2C[C@@H](c3c(O)ccc(Cl)c3Cl)C[C@H]2C1 (single isomer, unassigned; isomer 2) [Compound 119] | > 30 µM | – |
| < 1000 nM | – | O=C1CN(C[C@H]2CCN2)C[C@@H]2C[C@H](c3c(O)ccc(Cl)c3Cl)CN12 (single isomer, unassigned; isomer 2) [Compound 140] | > 30 µM | – |
| < 1000 nM | – | C[C@H](O)CN1CC(=O)N2C[C@@H](c3c(O)ccc(Cl)c3Cl)C[C@H]2C1 (single isomer, unassigned; isomer 2) [Compound 151] | > 30 µM | – |
| < 1000 nM | – | COC[C@H](O)CN1CC(=O)N2C[C@@H](c3c(O)ccc(Cl)c3Cl)C[C@H]2C1 (single isomer, unassigned; isomer 2) [Compound 153] | < 30 µM | – |
| < 1000 nM | – | O=C1CN([C@H]2C[C@@](O)(CO)C2)C[C@@H]2C[C@H](c3c(O)ccc(Cl)c3Cl)CN12 (single isomer, unassigned; isomer 2) [Compound 164] | > 30 µM | – |
| – | < 1000 nM | O=C(CO)N1CC(=O)N2CC[C@@H](c3c(O)ccc(Cl)c3Cl)C[C@H]2C1 [Compound 1, (8R,9aS)-8-(2,3-dichloro-6-hydroxyphenyl)-2-(2-hydroxyacetyl)-hexahydro-1H-pyrido[1,2-a]pyrazin-4-one] | – | > 30 µM |
| – | < 1000 nM | O=C1CN(CCO)C[C@@H]2C[C@H](c3c(O)ccc(Cl)c3Cl)CN12 [Compound 2, (7R,8aS)-7-(2,3-dichloro-6-hydroxyphenyl)-2-(2-hydroxyethyl)-hexahydropyrrolo[1,2-a]pyrazin-4-one] | – | > 30 µM |
| – | < 1000 nM | O=C1CNC[C@@H]2C[C@H](c3c(O)ccc(Cl)c3Cl)CCN12 [Compound 15] | – | < 30 µM |
| – | < 1000 nM | C[C@@H](O)C(=O)N1CC(=O)N2CC[C@@H](c3c(O)ccc(Cl)c3Cl)C[C@H]2C1 [Compound 16, (8R,9aS)-8-(2,3-dichloro-6-hydroxyphenyl)-2-[(2R)-2-hydroxypropanoyl]-hexahydro-1H-pyrido[1,2-a]pyrazin-4-one] | – | > 30 µM |
